# Experimental data as given in ChEMBL document CHEMBL4145553, “Design, synthesis, and biological evaluation of novel amide and hydrazide based thioether analogs targeting Histone deacteylase (HDAC) enzymes” (Eur J Med Chem, 2018).
# Activity calls are given as the source filed them. No cut-off for these calls is given here.
# Tests used:
# IGROV-1 = assay: Growth inhibition of human IGROV1 cells assessed as cell growth at 10^-5 M incubated for 48 hrs by sulforhodamine B assay relative to control; assay type: functional; settings: IGROV-1, 48 h, read-out: Activity
# SNB-75 [1] = assay: Growth inhibition of human SNB75 cells assessed as cell growth at 10^-4 M incubated for 48 hrs by sulforhodamine B assay relative to control; assay type: functional; settings: SNB-75, 48 h, read-out: Activity
# HCT-116 [2] = assay: Growth inhibition of human HCT116 cells assessed as cell growth at 10^-8 M incubated for 48 hrs by sulforhodamine B assay relative to control; assay type: functional; settings: HCT-116, 48 h, read-out: Activity
# DU-145 [3] = assay: Growth inhibition of human DU145 cells assessed as cell growth at 10^-7 M incubated for 48 hrs by sulforhodamine B assay relative to control; assay type: functional; settings: DU-145, 48 h, read-out: Activity
# A549 = assay: Growth inhibition of human A549/ATCC cells assessed as cell growth at 10^-8 M incubated for 48 hrs by sulforhodamine B assay relative to control; assay type: functional; settings: A549, 48 h, read-out: Activity
# MDA-MB-435 = assay: Downregulation of HDAC1 mRNA expression in human MDA-MB-435 cells by qRT-PCR method; assay type: functional, cell-based
# HCT-116 [4] = assay: Growth inhibition of human HCT116 cells assessed as cell growth at 10^-7 M incubated for 48 hrs by sulforhodamine B assay relative to control; assay type: functional; settings: HCT-116, 48 h, read-out: Activity
# RXF 393 = assay: Growth inhibition of human RXF393 cells assessed as cell growth at 10^-6 M incubated for 48 hrs by sulforhodamine B assay relative to control; assay type: functional; settings: RXF 393, 48 h, read-out: Activity
# NCI-H226 [5] = assay: Growth inhibition of human NCI-H226 cells assessed as cell growth at 10^-4 M incubated for 48 hrs by sulforhodamine B assay relative to control; assay type: functional; settings: NCI-H226, 48 h, read-out: Activity
# M14 = assay: Growth inhibition of human M14 cells assessed as cell growth at 10^-5 M incubated for 48 hrs by sulforhodamine B assay relative to control; assay type: functional; settings: M14, 48 h, read-out: Activity
# RPMI-8226 [6] = assay: Growth inhibition of human RPMI8226 cells assessed as cell growth at 10^-8 M incubated for 48 hrs by sulforhodamine B assay relative to control; assay type: functional; settings: RPMI-8226, 48 h, read-out: Activity
# SK-MEL-28 = assay: Growth inhibition of human SK-MEL-28 cells incubated for 48 hrs by sulforhodamine B assay; assay type: functional; settings: SK-MEL-28, 48 h
# HL-60 = assay: Induction of apoptosis in human HL60 cells assessed as necrotic cells by propidium iodide/Annexin V staining based flow cytometry (reference value: 0.34%); assay type: functional
# SF-295 = assay: Growth inhibition of human SF295 cells assessed as cell growth at 10^-4 M incubated for 48 hrs by sulforhodamine B assay relative to control; assay type: functional; settings: SF-295, 48 h, read-out: Activity
# UACC-257 = assay: Growth inhibition of human UACC257 cells incubated for 48 hrs by sulforhodamine B assay; assay type: functional; settings: UACC-257, 48 h
# Malme-3M = assay: Growth inhibition of human MALME-3M cells assessed as cell growth at 10^-8 M incubated for 48 hrs by sulforhodamine B assay relative to control; assay type: functional; settings: read-out: Activity
# UO-31 = assay: Growth inhibition of human UO31 cells assessed as cell growth at 10^-8 M incubated for 48 hrs by sulforhodamine B assay relative to control; assay type: functional; settings: UO-31, 48 h, read-out: Activity
# HOP-62 [7] = assay: Growth inhibition of human HOP62 cells incubated for 48 hrs by sulforhodamine B assay; assay type: functional; settings: HOP-62, 48 h
# A498 [8] = assay: Growth inhibition of human A498 cells assessed as cell growth at 10^-5 M incubated for 48 hrs by sulforhodamine B assay relative to control; assay type: functional; settings: A498, 48 h, read-out: Activity
# HCC 2998 = assay: Growth inhibition of human HCC2998 cells assessed as cell growth at 10^-7 M incubated for 48 hrs by sulforhodamine B assay relative to control; assay type: functional; settings: HCC 2998, 48 h, read-out: Activity
# DU-145 [9] = assay: Growth inhibition of human DU145 cells assessed as cell growth at 10^-8 M incubated for 48 hrs by sulforhodamine B assay relative to control; assay type: functional; settings: DU-145, 48 h, read-out: Activity
# RPMI-8226 [10] = assay: Growth inhibition of human RPMI8226 cells assessed as cell growth at 10^-7 M incubated for 48 hrs by sulforhodamine B assay relative to control; assay type: functional; settings: RPMI-8226, 48 h, read-out: Activity
# NCI-H522 = assay: Growth inhibition of human NCI-H522 cells assessed as cell growth at 10^-8 M incubated for 48 hrs by sulforhodamine B assay relative to control; assay type: functional; settings: NCI-H522, 48 h, read-out: Activity
# NCI-H226 [11] = assay: Growth inhibition of human NCI-H226 cells assessed as cell growth at 10^-6 M incubated for 48 hrs by sulforhodamine B assay relative to control; assay type: functional; settings: NCI-H226, 48 h, read-out: Activity
# LOX IMVI = assay: Growth inhibition of human LOXIMVI cells incubated for 48 hrs by sulforhodamine B assay; assay type: functional
# SNB-75 [12] = assay: Growth inhibition of human SNB75 cells assessed as cell growth at 10^-6 M incubated for 48 hrs by sulforhodamine B assay relative to control; assay type: functional; settings: SNB-75, 48 h, read-out: Activity
# HOP-62 [13] = assay: Growth inhibition of human HOP62 cells assessed as cell growth at 10^-6 M incubated for 48 hrs by sulforhodamine B assay relative to control; assay type: functional; settings: HOP-62, 48 h, read-out: Activity
# SK-MEL-5 = assay: Growth inhibition of human SK-MEL-5 cells assessed as cell growth at 10^-8 M incubated for 48 hrs by sulforhodamine B assay relative to control; assay type: functional; settings: SK-MEL-5, 48 h, read-out: Activity
# KM12 = assay: Growth inhibition of human KM12 cells incubated for 48 hrs by sulforhodamine B assay; assay type: functional; settings: KM12, 48 h
# A498 [14] = assay: Growth inhibition of human A498 cells incubated for 48 hrs by sulforhodamine B assay; assay type: functional; settings: A498, 48 h
# [15] = read-out: LC50 (the source's name)
# [16] = read-out: pLC50 (the source's name) (converted)
smiles,measurement,setting,value
CCS/C(Nc1ccccc1)=C(\C#N)C(=O)N/N=C\c1ccc(Cl)cc1Cl,growth at 10 µM,IGROV-1,42%
same,growth at 100 µM,SNB-75 [1],-17%
same,growth at 0.01 µM,HCT-116 [2],96%
same,growth at 0.1 µM,DU-145 [3],98%
same,growth at 0.01 µM,A549,97%
same,Activity,MDA-MB-435,Active
same,growth at 0.1 µM,HCT-116 [4],92%
same,growth at 1 µM,RXF 393,75%
same,growth at 100 µM,NCI-H226 [5],11%
same,growth at 10 µM,M14,-1%
same,growth at 0.01 µM,RPMI-8226 [6],101%
same,GI50,SK-MEL-28; read-out: GI50,23.6 µM
same,CC50,SK-MEL-28; [15],> 100 µM
same,TGI,SK-MEL-28; read-out: TGI,> 100 µM
same,GI50,SK-MEL-28; read-out: pGI50 (converted),23.4 µM
same,CC50,SK-MEL-28; [16],> 100 µM
same,TGI,SK-MEL-28; read-out: pTGI,> 100 µM
same,Activity,HL-60,2.03%
same,growth at 100 µM,SF-295,3%
same,GI50,UACC-257; read-out: GI50,25.7 µM
same,CC50,UACC-257; [15],> 100 µM
same,TGI,UACC-257; read-out: TGI,> 100 µM
same,GI50,UACC-257; read-out: pGI50 (converted),25.7 µM
same,CC50,UACC-257; [16],> 100 µM
same,TGI,UACC-257; read-out: pTGI,> 100 µM
same,growth at 0.01 µM,Malme-3M,103%
same,growth at 0.01 µM,UO-31,94%
same,GI50,HOP-62 [7]; read-out: GI50,3.66 µM
same,CC50,HOP-62 [7]; [15],> 100 µM
same,TGI,HOP-62 [7]; read-out: TGI,> 100 µM
same,GI50,HOP-62 [7]; read-out: pGI50 (converted),3.63 µM
same,CC50,HOP-62 [7]; [16],> 100 µM
same,TGI,HOP-62 [7]; read-out: pTGI,> 100 µM
same,growth at 10 µM,A498 [8],3%
same,growth at 0.1 µM,HCC 2998,100%
same,growth at 0.01 µM,DU-145 [9],105%
same,growth at 0.1 µM,RPMI-8226 [10],94%
same,growth at 0.01 µM,NCI-H522,109%
same,growth at 1 µM,NCI-H226 [11],85%
same,GI50,LOX IMVI; read-out: GI50,5.88 µM
same,CC50,LOX IMVI; [15],> 100 µM
same,TGI,LOX IMVI; read-out: TGI,> 100 µM
same,GI50,LOX IMVI; read-out: pGI50 (converted),5.89 µM
same,CC50,LOX IMVI; [16],> 100 µM
same,TGI,LOX IMVI; read-out: pTGI,> 100 µM
same,growth at 1 µM,SNB-75 [12],76%
same,growth at 1 µM,HOP-62 [13],76%
same,growth at 0.01 µM,SK-MEL-5,101%
same,GI50,KM12; read-out: GI50,4.04 µM
same,CC50,KM12; [15],> 100 µM
same,TGI,KM12; read-out: TGI,> 100 µM
same,GI50,KM12; read-out: pGI50 (converted),4.07 µM
same,CC50,KM12; [16],> 100 µM
same,TGI,KM12; read-out: pTGI,> 100 µM
same,GI50,A498 [14]; read-out: GI50,1.87 µM
same,CC50,A498 [14]; [15],> 100 µM
same,TGI,A498 [14]; read-out: TGI,37.8 µM
same,GI50,A498 [14]; read-out: pGI50 (converted),1.86 µM
same,CC50,A498 [14]; [16],> 100 µM
same,TGI,A498 [14]; read-out: pTGI (converted),38 µM
CCS/C(Nc1ccccc1)=C(\C#N)C(=O)Nc1ccc(OC)cc1,growth at 10 µM,IGROV-1,39%
same,growth at 100 µM,SNB-75 [1],-22%
same,growth at 0.01 µM,HCT-116 [2],100%
same,growth at 0.1 µM,DU-145 [3],96%
same,growth at 0.01 µM,A549,95%
same,Activity,MDA-MB-435,Active
same,growth at 0.1 µM,HCT-116 [4],89%
same,growth at 1 µM,RXF 393,82%
same,growth at 100 µM,NCI-H226 [5],-15%
same,growth at 10 µM,M14,10%
same,growth at 0.01 µM,RPMI-8226 [6],94%
same,GI50,SK-MEL-28; read-out: GI50,15.3 µM
same,CC50,SK-MEL-28; [15],> 100 µM
same,TGI,SK-MEL-28; read-out: TGI,> 100 µM
same,GI50,SK-MEL-28; read-out: pGI50 (converted),15.5 µM
same,CC50,SK-MEL-28; [16],> 100 µM
same,TGI,SK-MEL-28; read-out: pTGI,> 100 µM
same,Activity,HL-60,1.98%
same,growth at 100 µM,SF-295,6%
same,GI50,UACC-257; read-out: GI50,21.2 µM
same,CC50,UACC-257; [15],> 100 µM
same,TGI,UACC-257; read-out: TGI,> 100 µM
same,GI50,UACC-257; read-out: pGI50 (converted),21.4 µM
same,CC50,UACC-257; [16],> 100 µM
same,TGI,UACC-257; read-out: pTGI,> 100 µM
same,growth at 0.01 µM,Malme-3M,98%
same,growth at 0.01 µM,UO-31,93%
same,GI50,HOP-62 [7]; read-out: GI50,5.62 µM
same,CC50,HOP-62 [7]; [15],> 100 µM
same,TGI,HOP-62 [7]; read-out: TGI,> 100 µM
same,GI50,HOP-62 [7]; read-out: pGI50 (converted),5.62 µM
same,CC50,HOP-62 [7]; [16],> 100 µM
same,TGI,HOP-62 [7]; read-out: pTGI,> 100 µM
same,growth at 10 µM,A498 [8],9%
same,growth at 0.1 µM,HCC 2998,92%
same,growth at 0.01 µM,DU-145 [9],101%
same,growth at 0.1 µM,RPMI-8226 [10],89%
same,growth at 0.01 µM,NCI-H522,107%
same,growth at 1 µM,NCI-H226 [11],88%
same,GI50,LOX IMVI; read-out: GI50,6.16 µM
same,CC50,LOX IMVI; [15],> 100 µM
same,TGI,LOX IMVI; read-out: TGI,> 100 µM
same,GI50,LOX IMVI; read-out: pGI50 (converted),6.17 µM
same,CC50,LOX IMVI; [16],> 100 µM
same,TGI,LOX IMVI; read-out: pTGI,> 100 µM
same,growth at 1 µM,SNB-75 [12],81%
same,growth at 1 µM,HOP-62 [13],78%
same,growth at 0.01 µM,SK-MEL-5,98%
same,GI50,KM12; read-out: GI50,2.8 µM
same,CC50,KM12; [15],> 100 µM
same,TGI,KM12; read-out: TGI,> 100 µM
same,GI50,KM12; read-out: pGI50 (converted),2.82 µM
same,CC50,KM12; [16],> 100 µM
same,TGI,KM12; read-out: pTGI,> 100 µM
same,GI50,A498 [14]; read-out: GI50,2.54 µM
same,CC50,A498 [14]; [15],> 100 µM
same,TGI,A498 [14]; read-out: TGI,26.6 µM
same,GI50,A498 [14]; read-out: pGI50 (converted),2.57 µM
same,CC50,A498 [14]; [16],> 100 µM
same,TGI,A498 [14]; read-out: pTGI (converted),26.9 µM
